Laboratory results from PMC5903252 (British Journal of Clinical Pharmacology, 2018).

Assay: Plasma pharmacokinetics of BMS-962212 after IV infusion
Settings: for clearance / Vd / half-life / AUC(0-inf) / AUC(0-t) / Cmax / Tmax: human, in vivo
[1] = part B 1 mg h^−1, Japanese ethnicity (n = 4), geometric mean (CV%)
[2] = part B 1 mg h^−1, Non-Japanese ethnicity (n = 4), geometric mean (CV%)
[3] = part B 3 mg h^−1, Japanese ethnicity (n = 4), geometric mean (CV%)
[4] = part B 3 mg h^−1, Non-Japanese ethnicity (n = 4), geometric mean (CV%)
[5] = part B 9 mg h^−1, Japanese ethnicity (n = 4), geometric mean (CV%)
[6] = part B 9 mg h^−1, Non-Japanese ethnicity (n = 4), geometric mean (CV%)
[7] = part B 20 mg h^−1, Japanese ethnicity (n = 4), geometric mean (CV%)
[8] = part B 20 mg h^−1, Non-Japanese ethnicity (n = 4), geometric mean (CV%)

SMILES: CN1CCN(c2cccc3c2CCN(C(=O)/C=C/c2c(-n4cnnn4)ccc(Cl)c2F)[C@@H]3C(=O)Nc2ccc(C(=O)O)cc2)C(=O)C1 [BMS‐962212]
- clearance (iv, 1.5 mg h^−1, CL, part A 2-h IV infusion 1.5 mg h^−1, geometric mean (CV%)): 276 mL/min
- Vd (iv, 1.5 mg h^−1, Vz, part A 2-h IV infusion 1.5 mg h^−1, geometric mean (CV%)): 72.6 L
- half-life (iv, 1.5 mg h^−1, t1/2, part A 2-h IV infusion 1.5 mg h^−1, geometric mean (CV%)): 2.04 h
- AUC(0-inf) (iv, 3 mg h^−1): 21400 ng·h/mL
- AUC(0-t) (iv, 3 mg h^−1): 21200 ng·h/mL
- Cmax (iv, 3 mg h^−1): 202 ng/mL
- Tmax (iv, 3 mg h^−1): 60 h
- clearance (iv, 3 mg h^−1, CL, part B 5-day IV infusion 3 mg h^−1, geometric mean (CV%)): 280 mL/min
- Vd (iv, 3 mg h^−1, Vz, part B 5-day IV infusion 3 mg h^−1, geometric mean (CV%)): 165 L
- half-life (iv, 3 mg h^−1, t1/2, part B 5-day IV infusion 3 mg h^−1, geometric mean (CV%)): 6.22 h
- AUC(0-inf) (iv, 4 mg h^−1): 377 ng·h/mL
- AUC(0-t) (iv, 4 mg h^−1): 233 ng·h/mL
- Cmax (iv, 4 mg h^−1): 182 ng/mL
- Tmax (iv, 4 mg h^−1): 2 h
- clearance (iv, 4 mg h^−1, CL, part A 2-h IV infusion 4 mg h^−1, geometric mean (CV%)): 358 mL/min
- Vd (iv, 4 mg h^−1, Vz, part A 2-h IV infusion 4 mg h^−1, geometric mean (CV%)): 118 L
- half-life (iv, 4 mg h^−1, t1/2, part A 2-h IV infusion 4 mg h^−1, geometric mean (CV%)): 3.95 h
- AUC(0-inf) (iv, 9 mg h^−1): 55500 ng·h/mL
- AUC(0-t) (iv, 9 mg h^−1): 54800 ng·h/mL
- Cmax (iv, 9 mg h^−1): 520 ng/mL
- Tmax (iv, 9 mg h^−1): 36 h
- clearance (iv, 9 mg h^−1, CL, part B 5-day IV infusion 9 mg h^−1, geometric mean (CV%)): 324 mL/min
- Vd (iv, 9 mg h^−1, Vz, part B 5-day IV infusion 9 mg h^−1, geometric mean (CV%)): 216 L
- half-life (iv, 9 mg h^−1, t1/2, part B 5-day IV infusion 9 mg h^−1, geometric mean (CV%)): 8.65 h
- AUC(0-inf) (iv, 10 mg h^−1): 1050 ng·h/mL
- AUC(0-t) (iv, 10 mg h^−1): 664 ng·h/mL
- Cmax (iv, 10 mg h^−1): 505 ng/mL
- Tmax (iv, 10 mg h^−1): 2 h
- clearance (iv, 10 mg h^−1, CL, part A 2-h IV infusion 10 mg h^−1, geometric mean (CV%)): 320 mL/min
- Vd (iv, 10 mg h^−1, Vz, part A 2-h IV infusion 10 mg h^−1, geometric mean (CV%)): 126 L
- half-life (iv, 10 mg h^−1, t1/2, part A 2-h IV infusion 10 mg h^−1, geometric mean (CV%)): 4.68 h
- AUC(0-inf) (iv, 20 mg h^−1): 126000 ng·h/mL
- AUC(0-t) (iv, 20 mg h^−1): 124000 ng·h/mL
- Cmax (iv, 20 mg h^−1): 1170 ng/mL
- Tmax (iv, 20 mg h^−1): 60 h
- clearance (iv, 20 mg h^−1, CL, part B 5-day IV infusion 20 mg h^−1, geometric mean (CV%)): 317 mL/min
- Vd (iv, 20 mg h^−1, Vz, part B 5-day IV infusion 20 mg h^−1, geometric mean (CV%)): 219 L
- half-life (iv, 20 mg h^−1, t1/2, part B 5-day IV infusion 20 mg h^−1, geometric mean (CV%)): 7.65 h
- AUC(0-inf) (iv, 25 mg h^−1): 2730 ng·h/mL
- AUC(0-t) (iv, 25 mg h^−1): 1740 ng·h/mL
- Cmax (iv, 25 mg h^−1): 1120 ng/mL
- Tmax (iv, 25 mg h^−1): 2 h
- clearance (iv, 25 mg h^−1, CL, part A 2-h IV infusion 25 mg h^−1, geometric mean (CV%)): 312 mL/min
- Vd (iv, 25 mg h^−1, Vz, part A 2-h IV infusion 25 mg h^−1, geometric mean (CV%)): 129 L
- half-life (iv, 25 mg h^−1, t1/2, part A 2-h IV infusion 25 mg h^−1, geometric mean (CV%)): 4.94 h
- clearance (iv, CL, range across panels, part A 2-h IV infusion): 276 to 358 mL/min
- clearance (iv, CL, range across panels, part B 5-day IV infusion): 280 to 324 mL/min
- Vd (iv, Vss, range across panels, 5-day IV infusion): 164 to 218 L
- Vd (iv, Vz, range across panels, 2-h IV infusion): 72 to 129 L
- half-life (t1/2 range over all dose groups, part B, Japanese subjects): 6.42 to 8.28 h
- half-life (t1/2 range over all dose groups, part B, non-Japanese subjects): 6.05 to 8.32 h
- Steady‐state concentration [1]: 55.81 (20.5) ng ml ^−1
- Weight‐corrected steady‐state concentration [1]: 4.21 (21.6) kg μg.ml ^−1
- Steady‐state concentration [2]: 49.88 (27.3) ng ml ^−1
- Weight‐corrected steady‐state concentration [2]: 4.34 (15.5) kg μg.ml ^−1
- Steady‐state concentration [3]: 188.03 (17.9) ng ml ^−1
- Weight‐corrected steady‐state concentration [3]: 14.33 (32.9) kg μg.ml ^−1
- Steady‐state concentration [4]: 157.76 (12.9) ng ml ^−1
- Weight‐corrected steady‐state concentration [4]: 14.10 (22.7) kg μg.ml ^−1
- Steady‐state concentration [5]: 439.27 (18.9) ng ml ^−1
- Weight‐corrected steady‐state concentration [5]: 29.60 (18.9) kg μg.ml ^−1
- Steady‐state concentration [6]: 458.34 (18.9) ng ml ^−1
- Weight‐corrected steady‐state concentration [6]: 34.47 (23.5) kg μg.ml ^−1
- Steady‐state concentration [7]: 1161.68 (17.7) ng ml ^−1
- Weight‐corrected steady‐state concentration [7]: 76.07 (30.1) kg μg.ml ^−1
- Steady‐state concentration [8]: 887.21 (23.3) ng ml ^−1
- Weight‐corrected steady‐state concentration [8]: 70.57 (32.4) kg μg.ml ^−1
- dose proportionality (parts A and B): demonstrated dose proportionality
